How the values were obtained:
[1] = system: MCF-7, clone WS8, cells; assay: MCF-7 cell proliferation assay of estrogenic activity; type: cell-based, human; conditions: logarithmic (base 10) Relative Proliferative Effect relative to 17-beta estradiol, MCF-7 assay; values 'expected or measured'
From the text: The MCF-7 assay is a useful test for assessing whether a polyhydric phenol compound is appreciably non-estrogenic. The MCF-7 assay uses MCF-7, clone WS8, cells to measure whether and to what extent a substance induces cell proliferation via estrogen receptor (ER)-mediated pathways. The method is described in “Test Method Nomination: MCF-7 Cell Proliferation Assay of Estrogenic Activity” submitted for validation by CertiChem, Inc. to the National Toxicology Program Interagency Center for the Evaluation of Alternative Toxicological Methods (NICEATM) on Jan. 19, 2006 (available online at iccvam.niehs.nih gov/methods/endocrine/endodocs/SubmDoc.pdf).
A brief summary of the method of the aforementioned MCF-7 assay is provided below. MCF-7, clone WS8, cells are maintained at 37° C. in RMPI (or Roswell Park Memorial Institute medium) containing Phenol Red (e.g., GIBCO Catalog Number 11875119) and supplemented with the indicated additives for routine culture. An aliquot of cells maintained at 37° C. are grown for two days in phenol-free media containing 5% charcoal stripped fetal bovine serum in a 25 cm^2 tissue culture flask. Using a robotic dispenser such as an EPMOTION™ 5070 unit from Eppendorf AG, MCF-7 cells are seeded at 400 cells per well in 0.2 ml of hormone-free culture medium in Corning 96-well plates. The cells are adapted for 3 days in the hormone-free culture medium prior to adding the chemical to be assayed for estrogenic activity. The media containing the test chemical is replaced daily for 6 days. At the end of a 7 day exposure to the test chemical, the media is removed, the wells are washed once with 0.2 ml of HBSS (Hanks' Balanced Salt Solution), and then assayed to quantify amounts of DNA per well using a micro-plate modification of the Burton diphenylamine (DPA) assay, which is used to calculate the level of cell proliferation. […]

[2] = molecular target: T1, human estrogen receptor (Homo sapiens, UniProt P03372); assay: suitable in vitro assay of estrogenic activity whose results correlate with the MCF-7 assay (outside toxicology laboratory); conditions: in vitro assay correlated to MCF-7 assay through common reference compounds
T1 sequence (P03372 1-595): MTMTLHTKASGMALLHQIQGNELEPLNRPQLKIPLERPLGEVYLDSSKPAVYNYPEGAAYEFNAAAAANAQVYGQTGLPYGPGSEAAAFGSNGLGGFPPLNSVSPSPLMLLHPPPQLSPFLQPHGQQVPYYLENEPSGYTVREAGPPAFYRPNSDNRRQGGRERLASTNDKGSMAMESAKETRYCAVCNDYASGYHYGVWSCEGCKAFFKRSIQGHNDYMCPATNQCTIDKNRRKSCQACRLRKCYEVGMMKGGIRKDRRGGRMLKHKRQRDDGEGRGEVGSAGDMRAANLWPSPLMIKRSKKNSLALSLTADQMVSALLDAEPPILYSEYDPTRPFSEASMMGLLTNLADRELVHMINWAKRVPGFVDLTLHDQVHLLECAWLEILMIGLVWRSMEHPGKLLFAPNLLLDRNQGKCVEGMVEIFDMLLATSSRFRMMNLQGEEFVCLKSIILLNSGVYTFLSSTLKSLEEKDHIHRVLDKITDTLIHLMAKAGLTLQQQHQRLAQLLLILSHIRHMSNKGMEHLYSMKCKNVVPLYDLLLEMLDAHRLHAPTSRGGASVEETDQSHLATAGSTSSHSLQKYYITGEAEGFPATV
Procedure: The polyhydric phenols used to make the diglycidyl ethers of each of Runs I-III were assayed for estrogenic activity by an outside toxicology laboratory using a suitable assay whose results are known to be directly correlatable to the MCF-7 assay based on common reference compounds.

[3] = genotoxicity assays (e.g., Ames II assay)

Row | SMILES | Log RPE [1] | estrogenic activity [2] | further results
1 | C[C@]12CC[C@@H]3c4ccc(O)cc4CC[C@H]3[C@@H]1CC[C@@H]2O [17β-estradiol] | 2.00 | – | –
2 | CCCC(c1cc(C(C)(C)C)c(O)cc1C)c1cc(C(C)(C)C)c(O)cc1C [Structure 7, 4,4′-butylidenebis(2-t-butyl-5-methylphenol)] | – | do not exhibit appreciable estrogenic activity | –
3 | Cc1cc(Cc2cc(C)cc(C(C)(C)C)c2O)c(O)c(C(C)(C)C)c1 [Structure 9] | – | do not exhibit appreciable estrogenic activity | –
4 | Oc1ccc(Cc2ccc(O)cc2)cc1 [Bisphenol F] | −2 | – | –
5 | CC(C)(C)c1cc(Cc2cc(C(C)(C)C)c(O)c(C(C)(C)C)c2)cc(C(C)(C)C)c1O [Structure 8, 4,4′-methylenebis(2,6-di-t-butylphenol)] | – | do not exhibit appreciable estrogenic activity | –
6 | CC(C)(C)c1cc(Cc2cc(C(C)(C)C)c(OCC3CO3)c(C(C)(C)C)c2)cc(C(C)(C)C)c1OCC1CO1 (stereo not drawn) [Diglycidyl ether of 4,4′-methylenebis(2,6-di-tert-butylphenol)] | – | – | genotoxicity [3]: non-genotoxic
7 | O=S(=O)(c1ccc(O)cc1)c1ccc(O)cc1 [Bisphenol S] | −2 | – | –
8 | Cc1cc(Cc2cc(C)c(O)c(C)c2)cc(C)c1O [Structure 6, 4,4′-methylenebis(2,6-dimethylphenol)] | – | do not exhibit appreciable estrogenic activity | –
9 | CC(C)(C)c1cc(O)c(C(C)(C)C)cc1O [Structure 12, 2,5-di-t-butylhydroquinone] | – | do not exhibit appreciable estrogenic activity | –

— patent US9724276B2, “Dental materials and method of manufacture” (Valspar Sourcing, Inc., priority 2012, dated 2017)
